Literature values in US4721704A, “Potent synthetic atrial peptide analogs” (Peninsula Laboratories, Inc., priority 1986, dated 1988).
Ends that are not written are not given here.

Key:
patients = settings: 400 μg bolus doses
[1] = Atriopeptin III and α-hANP compared with each other

α-human atrial natriuretic polypeptide (SLRRSSCFGGRMDRIGAQSGLGCNSFRY; ends and bridges not checked; cysteine pairing not given here; UniProt P01160 124-151, looked up) [α-hANP, peptide isolated from human atria]
diuretic action (patients): acting as a diuretic
effect on blood pressure (patients): decreasing blood pressure
hypotensive, diuretic and natriuretic activities [1]: about comparable
